Data published in the SangsterLogP compilation.
Blank lines part the entries; values can stand above or below the molecule they belong to.

Assays:
[1] = not given; remark: listed apart in the source
[2] = method code SF-AS, from DOI: 10.1006/pest.1994.1014
[3] = method code SF-HPLC, from DOI: 10.1002/etc.5620081103
[4] = not given; remark: listed apart in the source
[5] = not given; remark: listed apart in the source
[6] = method code SF-GLC, from DOI: 10.1016/s0045-6535(02)00841-x, PMID: 12615110
[7] = method code SF-AS, from DOI: 10.1080/10826076.2011.619030
[8] = method code SF-AS, from DOI: 10.1021/jm00371a026, PMID: 6425501; conditions: pH 7.4
[9] = method code SF-RC, from DOI: 10.1021/es60170a013
[10] = method code SF-AS, from DOI: 10.1021/jm00197a006, PMID: 533877
[11] = not given; remark: listed apart in the source
[12] = method code SF-AS, from DOI: 10.1211/0022357001777513, PMID: 11186244; conditions: pH 7.3
[13] = method code SF-HPLC, from DOI: 10.1016/0378-5173(92)90116-j; conditions: pH 7.4
[14] = method code SF, from DOI: 10.1080/09553008714551831, PMID: 3497891; conditions: pH 7.4
[15] = method code SF-GLC, from DOI: 10.1016/0166-445x(88)90052-5
[16] = method code SF-HPLC, from DOI: 10.1002/jlac.1995199512305
[17] = method code SF, from Kruglik, P.; Leschev, M.; Rakhman'ko, M.; Bubel, N.; Asratyan, V. (1991). Extraction of 1,2,4-triazole and its derivatives by organic solvents. 64(8)1721-1724.
[18] = method code SF-AS, from DOI: 10.1016/0048-3575(88)90061-2
[19] = method code SF-AS, from Kourounakis, P.; Chilliard, N. (1983). Ionization constants and partition coefficients of some 1,1-diphenyl-1-alkoxy-3-dialkylamino-2-propanones with analgesic activity. Pharmazie, 38(6)388-389.; conditions: pH 7.4
[20] = not given; remark: listed apart in the source

Structure (SMILES): COCC(c1c(O)c2ccccc2oc1=O)c1c(O)c2ccccc2oc1=O
logP [1]: 1.38

Structure (SMILES): O=C(O)CCCC[C@@H]1SC[C@@H]2NC(=O)N[C@@H]21
logP [5]: 0.39

Structure (SMILES): Brc1cc(Br)c(Oc2cc(Br)c(Br)cc2Br)c(Br)c1
logP [6]: 7.82

Structure (SMILES): CO[C@@]12[C@H](COC(N)=O)C3=C(C(=O)C(C)=C(Nc4ccccc4)C3=O)N1C[C@@H]1N[C@@H]12
logD [8]: 1.3

Structure (SMILES): CO[C@@]12[C@H](COC(N)=O)C3=C(C(=O)C(C)=C(Nc4ccc(C)nc4)C3=O)N1C[C@@H]1N[C@@H]12
logD [8]: 0.59

Structure (SMILES): ClC(Cl)C(Cl)Cl
logP [9]: 2.39

Structure (SMILES): C=CCN(CCC#N)c1cc(NC(C)=O)c(/N=N/c2c(Br)cc([N+](=O)[O-])cc2[N+](=O)[O-])cc1OC
logP [3]: 5.4

Structure (SMILES): CC(C)(C)N(NC(=O)c1cccc(Cl)c1)C(=O)c1ccccc1Cl
logP [2]: 3.49

Structure (SMILES): CC(Cl)CCl (stereo not drawn)
logP [11]: 1.98

Structure (SMILES): Brc1ccc(Oc2ccc(Br)cc2Br)c(Br)c1
logP [6]: 6.81

Structure (SMILES): ClCCCl
logP [11]: 1.55

Structure (SMILES): ClC=C(Cl)Cl
logP [11]: 2.67

Structure (SMILES): Oc1ccc(Cl)c(O)c1
logP [9]: 1.8

Structure (SMILES): OCC1CO1 (stereo not drawn)
logP [15]: -0.95

Structure (SMILES): Nc1ncc([N+](=O)[O-])s1
logD [14]: 0.89

Structure (SMILES): O=[N+]([O-])c1nc[nH]n1
logP [17]: -0.41

Structure (SMILES): CC(C)(C)N(NC(=O)c1ccccc1F)C(=O)c1ccccc1Cl
logP [2]: 2.63

Structure (SMILES): CCOC(C(=O)CN1CCOCC1)(c1ccccc1)c1ccccc1
logD [19]: 1.08

Structure (SMILES): ClC(Cl)Cl
logP [9]: 1.9

Structure (SMILES): BrCC1CO1 (stereo not drawn)
logP [15]: 0.85

Structure (SMILES): CCC(C(=O)OCCCCCCOC(=O)C(CC)C(CO)Cc1cncn1C)C(CO)Cc1cncn1C (stereo not drawn)
logD [13]: 1.84

Structure (SMILES): CO[C@@]12[C@H](COC(N)=O)C3=C(C(=O)C(C)=C(Nc4nc(C)c(C)s4)C3=O)N1C[C@@H]1N[C@@H]12
logD [8]: 1.29

Structure (SMILES): CO[C@@]12[C@@H]3N[C@@H]3CN1C1=C(C(=O)C(Nc3nc(C)cs3)=C(C)C1=O)[C@@H]2COC(N)=O
logD [8]: 1.16

Structure (SMILES): CC1CCC2C(C)C(OC3OC(C(=O)O)C(O)C(O)C3O)OC3OC4(C)CCC1C32OO4 (stereo not drawn)
logP [20]: 1.08

Structure (SMILES): Brc1ccc(Oc2c(Br)cc(Br)cc2Br)c(Br)c1
logP [6]: 7.24

Structure (SMILES): ClCC1CO1 (stereo not drawn)
logP [15]: 0.45

Structure (SMILES): CCC(c1c(O)c2ccccc2oc1=O)c1c(O)c2ccccc2oc1=O
logP [1]: 2.02

Structure (SMILES): CCOC1OC2OC3(C)CC(OC4OC(C(=O)O)C(O)C(O)C4O)C4C(C)CCC(C1C)C24OO3 (stereo not drawn)
logP [20]: 1.73

Structure (SMILES): CCOC(=O)C(c1c(O)c2ccccc2oc1=O)c1c(O)c2ccccc2oc1=O
logP [1]: 1.32

Structure (SMILES): Cn1cnc([N+](=O)[O-])n1
logP [17]: -0.45

Structure (SMILES): O=c1oc2ccccc2c(O)c1C(c1ccccc1)c1c(O)c2ccccc2oc1=O
logP [1]: 1.95

Now from value to molecule:

logP: -0.61
Structure (SMILES): COCCO

logP [2]: 3.11
Structure (SMILES): Cc1cccc(C(=O)NN(C(=O)c2ccccc2Cl)C(C)(C)C)c1

logP [3]: 5
Structure (SMILES): O=C1C(c2nc3ccccc3cc2O)=C(O)c2ccccc21

logP [4]: 0.39
Structure (SMILES): COC1C(N)CC(OC2CC(O)(C(=O)CO)Cc3c(O)c4c(c(O)c32)C(=O)c2ccccc2C4=O)OC1C (stereo not drawn)

logP [7]: 1.29
Structure (SMILES): CC1(C)OC2C(COC(=O)c3ccccc3)OC(n3ccc(=O)[nH]c3=O)C2O1 (stereo not drawn)

logP [7]: 0.59
Structure (SMILES): CC1(C)OC2C(COC3CC(O)C(O)C(CO)O3)OC(n3ccc(=O)n(Cc4ccccc4)c3=O)C2O1 (stereo not drawn)

logP [10]: 0.78
Structure (SMILES): Cc1nnc(/C=N/O)s1

logD [12]: 2.61
Structure (SMILES): OCC(O)COc1c(F)cc(-c2c3nc(c(-c4cc(F)c(OCC(O)CO)c(F)c4)c4ccc([nH]4)c(-c4cc(F)c(OCC(O)CO)c(F)c4)c4nc(c(-c5cc(F)c(OCC(O)CO)c(F)c5)c5ccc2[nH]5)C=C4)C=C3)cc1F (stereo not drawn)

logP [7]: -1.56
Structure (SMILES): CC1(C)OC2C(COC3CC(O)C(O)C(CO)O3)OC(n3ccc(=O)[nH]c3=O)C2O1 (stereo not drawn)

logP [3]: 4.8
Structure (SMILES): COc1cc(N=Nc2c(Br)cc([N+](=O)[O-])cc2Br)c(NC(C)=O)cc1N(CCOC(C)=O)CCOC(C)=O

logD [13]: 1.99
Structure (SMILES): CCC(C(=O)OCc1cccc(COC(=O)C(CC)C(CO)Cc2cncn2C)c1)C(CO)Cc1cncn1C (stereo not drawn)

logD [14]: -0.47
Structure (SMILES): COCC(O)Cn1cnc([N+](=O)[O-])n1 (stereo not drawn)

logP [4]: 0.01
Structure (SMILES): COc1cccc2c1C(=O)c1c(O)c3c(c(O)c1C2=O)C[C@@](O)(C(=O)CO)C[C@@H]3O[C@H]1C[C@H](N)C[C@H](C)O1

logD [12]: 2.65
Structure (SMILES): OCC(O)COc1cccc(-c2c3nc(c(-c4cccc(OCC(O)CO)c4F)c4ccc([nH]4)c(-c4cccc(OCC(O)CO)c4F)c4nc(c(-c5cccc(OCC(O)CO)c5F)c5ccc2[nH]5)C=C4)C=C3)c1F (stereo not drawn)

logP [16]: 0.94
Structure (SMILES): Cc1cn(C2CC(N=[N+]=[N-])C(COP(=O)(OCC3OC(n4cc(C)c(=O)[nH]c4=O)CC3N=[N+]=[N-])C(O)c3ccc([N+](=O)[O-])cc3[N+](=O)[O-])O2)c(=O)[nH]c1=O (stereo not drawn)

logP [7]: 0.13
Structure (SMILES): CC1(C)OC2C(COC3CC(O)C(O)C(CO)O3)OC(n3ccc(=O)n(C(=O)c4ccccc4)c3=O)C2O1 (stereo not drawn)

logP [5]: 7.41
Structure (SMILES): CC(C=CC1=C(C)C=CCC1(C)C)=CC=CC(C)=CCO

logP [18]: 3.53
Structure (SMILES): O=C(NC(=O)c1c(F)cccc1F)Nc1ccc(Oc2ncc(C(F)(F)F)cc2Cl)cc1

logP [17]: 0.22
Structure (SMILES): CCCn1cnc([N+](=O)[O-])n1

logD [13]: 0.68
Structure (SMILES): CCC(C(=O)OCCCOC(=O)C(CC)C(CO)Cc1cncn1C)C(CO)Cc1cncn1C (stereo not drawn)

logP [18]: 1.57
Structure (SMILES): O=C(NC(=O)c1c(F)cccc1F)Nc1ccc(Oc2ccccn2)cc1

logP [10]: 0.86
Structure (SMILES): O/N=C/c1cnns1

logD [19]: 0.85
Structure (SMILES): CC#CCOC(C(=O)CN(C)C)(c1ccccc1)c1ccccc1

logP [16]: 0.72
Structure (SMILES): COc1ccc(C(O)P(=O)(OCC2OC(n3cc(C)c(=O)[nH]c3=O)CC2N=[N+]=[N-])OCC2OC(n3cc(C)c(=O)[nH]c3=O)CC2N=[N+]=[N-])cc1 (stereo not drawn)

logD [13]: 1.16
Structure (SMILES): CCC(C(=O)OCCCCOC(=O)C(CC)C(CO)Cc1cncn1C)C(CO)Cc1cncn1C (stereo not drawn)

logP [18]: 2.8
Structure (SMILES): O=C(NC(=O)c1c(F)cccc1F)Nc1ccc(Oc2ccc(C(F)(F)F)cn2)cc1

logD [14]: -0.1
Structure (SMILES): COCC(O)Cn1ncc([N+](=O)[O-])n1 (stereo not drawn)

logP [4]: 0.96
Structure (SMILES): CC(=O)C1(O)Cc2c(O)c3c(c(O)c2C(OC2CC(N)C(O)C(C)O2)C1)C(=O)c1c(O)cccc1C3=O (stereo not drawn)

logP [5]: -1.69
Structure (SMILES): CC(C)(CO)[C@@H](O)C(=O)NCCC(=O)O

logP [2]: 2.88
Structure (SMILES): CC(C)(C)N(NC(=O)c1cccc(F)c1)C(=O)c1ccccc1Cl

logD [19]: 0.7
Structure (SMILES): C#CCOC(C(=O)CN(C)C)(c1ccccc1)c1ccccc1

logP [10]: 1.29
Structure (SMILES): Cc1nsc(C=NO)n1

logD [12]: 4.77
Structure (SMILES): Oc1ccc(-c2c3nc(c(-c4ccc(O)cc4)c4ccc([nH]4)c(-c4ccc(O)cc4)c4nc(c(-c5ccc(O)cc5)c5ccc2[nH]5)C=C4)C=C3)cc1

logP: 0.75
Structure (SMILES): CC(C)COCCO

logP [4]: 0.68
Structure (SMILES): CC(=O)C1(O)Cc2c(O)c3c(c(O)c2C(OC2CC(N)C(O)C(C)O2)C1)C(=O)c1ccccc1C3=O (stereo not drawn)

logP [16]: 0.83
Structure (SMILES): Cc1cn(C2CC(N=[N+]=[N-])C(COP(=O)(OCC3OC(n4cc(C)c(=O)[nH]c4=O)CC3N=[N+]=[N-])C(O)c3ccc([N+](=O)[O-])cc3)O2)c(=O)[nH]c1=O (stereo not drawn)

logD [19]: 1.73
Structure (SMILES): CCCOC(C(=O)CN(C)C)(c1ccccc1)c1ccccc1

logP [3]: 4.6
Structure (SMILES): CC(=O)OCCN(CCC#N)c1ccc(/N=N/c2nc3ccc([N+](=O)[O-])cc3s2)cc1

logD [12]: 4.83
Structure (SMILES): OCC(O)COc1cccc(-c2c3nc(c(-c4cccc(OCC(O)CO)c4)c4ccc([nH]4)c(-c4cccc(OCC(O)CO)c4)c4nc(c(-c5cccc(OCC(O)CO)c5)c5ccc2[nH]5)C=C4)C=C3)c1 (stereo not drawn)

logP: -0.1
Structure (SMILES): C=CCOCCO

logP [16]: 1.45
Structure (SMILES): Cc1cn(C2CC(N=[N+]=[N-])C(COP(=O)(OCC3OC(n4cc(C)c(=O)[nH]c4=O)CC3N=[N+]=[N-])C(O)c3ccc(Cl)cc3)O2)c(=O)[nH]c1=O (stereo not drawn)

logP [18]: 3.5
Structure (SMILES): O=C(NC(=O)c1c(F)cccc1F)Nc1ccc(Oc2ncc(Cl)cc2C(F)(F)F)cc1
